{
  "source": "patent US20240254119A1",
  "about": "(THIRD HARMONIC BIO, INC., priority 2022, published 2024)",
  "data": [
    {"molecular_target": "T1, wtKIT (Homo sapiens, UniProt P10721)", "T1 construct": "1888289AM in the reaction mixtures", "T1 sequence (P10721 26-976)": "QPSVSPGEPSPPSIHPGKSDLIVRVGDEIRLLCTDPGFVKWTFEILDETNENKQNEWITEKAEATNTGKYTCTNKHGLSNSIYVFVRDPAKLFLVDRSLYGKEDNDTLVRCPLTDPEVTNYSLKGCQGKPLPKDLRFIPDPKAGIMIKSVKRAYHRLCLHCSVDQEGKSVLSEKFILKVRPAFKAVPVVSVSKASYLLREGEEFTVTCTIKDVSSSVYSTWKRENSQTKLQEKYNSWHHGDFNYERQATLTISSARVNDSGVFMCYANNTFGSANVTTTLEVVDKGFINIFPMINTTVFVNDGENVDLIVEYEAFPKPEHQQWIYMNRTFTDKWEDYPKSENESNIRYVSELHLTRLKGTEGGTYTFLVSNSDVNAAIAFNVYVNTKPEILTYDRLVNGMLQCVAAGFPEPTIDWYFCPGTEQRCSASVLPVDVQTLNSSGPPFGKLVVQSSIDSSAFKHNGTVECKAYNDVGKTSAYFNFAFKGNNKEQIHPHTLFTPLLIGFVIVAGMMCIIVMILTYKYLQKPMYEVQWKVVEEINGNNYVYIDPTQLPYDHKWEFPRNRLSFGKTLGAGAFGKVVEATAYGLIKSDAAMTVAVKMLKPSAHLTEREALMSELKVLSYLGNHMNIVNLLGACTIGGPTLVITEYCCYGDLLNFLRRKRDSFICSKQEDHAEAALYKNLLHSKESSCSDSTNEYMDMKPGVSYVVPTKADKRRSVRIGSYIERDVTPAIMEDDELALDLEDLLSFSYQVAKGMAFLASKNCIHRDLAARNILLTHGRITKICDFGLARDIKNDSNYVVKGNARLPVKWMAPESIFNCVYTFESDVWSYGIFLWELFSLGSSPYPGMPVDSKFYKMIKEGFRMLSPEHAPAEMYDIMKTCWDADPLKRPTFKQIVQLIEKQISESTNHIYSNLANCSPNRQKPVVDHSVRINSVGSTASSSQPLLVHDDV", "assay": "HTRF biochemical assay, wtKIT (phosphorylation of a peptide substrate)", "conditions": "Table 4", "procedure,_shortened": "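wtKIT (5.0 nM) phosphorylating 1 µM FAM-labelled peptide with 400 µM ATP and 10 mM MnCl2 in 100 mM HEPES pH 7.5, 1% DMSO, 3 h at 25 °C. EDTA quench; phosphopeptide detected with anti-phosphotyrosine antibody by HTRF. Enzyme titrated for 10-20% substrate conversion.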", "units": {"IC50": "µM"}, "values": [
      {"smiles": "CC[C@@H](O)Cc1nc(-c2ccc(C)c(NC(=O)c3cnc4cc(Cl)ccn34)c2)no1", "note": "[Compound I-616, 7-chloro-N-[5-[5-[(2R)-2-hydroxybutyl]-1,2,4-oxadiazol-3-yl]-2-methyl-phenyl]imidazo[1,2-a]pyridine-3-carboxamide]", "IC50": "≤ 0.05"},
      {"smiles": "Cc1nc(-c2ccc(C)c(NC(=O)c3cnc4cc(-c5cscn5)ccn34)c2)no1", "note": "[Compound I-548, N-(2-methyl-5-(5-methyl-1,2,4-oxadiazol-3-yl)phenyl)-7-(thiazol-4-yl)imidazo[1,2-a]pyridine-3-carboxamide]", "IC50": "≤ 0.05"},
      {"smiles": "Cc1ccc(-c2noc(N3CC(F)(F)C3)n2)cc1NC(=O)c1cnc2cc(Cl)ccn12", "note": "[Compound I-601, 7-chloro-N-(5-(5-(3,3-difluoroazetidin-1-yl)-1,2,4-oxadiazol-3-yl)-2-methylphenyl)imidazo[1,2-a]pyridine-3-carboxamide]", "IC50": "≤ 0.05"},
      {"smiles": "Cc1ccc(-c2ncon2)cc1NC(=O)c1cnc2cc(F)ccn12", "note": "[Compound I-744]", "IC50": "0.5 to 5"},
      {"smiles": "Cc1ccc(-c2noc(C3CC(O)(C(F)F)C3)n2)cc1NC(=O)c1cnc2ccccn12", "note": "(stereo not shown) [Compound I-538]", "IC50": "0.05 to 0.5"},
      {"smiles": "Cc1ccc(-c2noc(CCC(C)(C)O)n2)cc1NC(=O)c1cnc2cc(COCC(C)(C)O)ccn12", "note": "[Compound I-567]", "IC50": "0.05 to 0.5"},
      {"smiles": "Cc1ccc(-c2noc(C[C@H](O)C(F)F)n2)cc1NC(=O)c1cnc2cc(COCc3nn[nH]n3)ccn12", "note": "[Compound I-597, (S)-7-(((2H-tetrazol-5-yl)methoxy)methyl)-N-(5-(5-(3,3-difluoro-2-hydroxypropyl)-1,2,4-oxadiazol-3-yl)-2-methylphenyl)imidazo[1,2-a]pyridine-3-carboxamide]", "IC50": "≤ 0.05"},
      {"smiles": "Cc1ccc(-c2noc(CC(O)CN3CCOCC3)n2)cc1NC(=O)c1cnc2ccccn12", "note": "(stereo not shown) [Compound I-543]", "IC50": "0.05 to 0.5"},
      {"smiles": "Cc1ccc(-c2noc(C[C@H](C)O)n2)cc1NC(=O)c1cnc2cc(Cl)ccn12", "note": "[Compound I-602]", "IC50": "≤ 0.05"},
      {"smiles": "COc1ccn2c(C(=O)Nc3cc(-c4noc(CC5CCCCO5)n4)ccc3C)cnc2c1", "note": "(stereo not shown) [Compound I-592, 7-methoxy-N-(2-methyl-5-(5-((tetrahydro-2H-pyran-2-yl)methyl)-1,2,4-oxadiazol-3-yl)phenyl)imidazo[1,2-a]pyridine-3-carboxamide]", "IC50": "≤ 0.05"},
      {"smiles": "Cc1nc(-c2ccc(C)c(NC(=O)c3cnc4cc(-c5csc(CO)n5)ccn34)c2)no1", "note": "[Compound I-594, 7-(2-(hydroxymethyl)thiazol-4-yl)-N-(2-methyl-5-(5-methyl-1,2,4-oxadiazol-3-yl)phenyl)imidazo[1,2-a]pyridine-3-carboxamide]", "IC50": "≤ 0.05"},
      {"smiles": "Cc1ccc(-c2noc([C@H]3C[C@@H]3F)n2)cc1NC(=O)c1cnc2cc([C@H]3C[C@@H]3CO)ccn12", "note": "[Compound I-480, N-[5-[5-[(1R,2S)-2-fluorocyclopropyl]-1,2,4-oxadiazol-3-yl]-2-methyl-phenyl]-7-[(1S,2S)-2 (hydroxymethyl)cyclopropyl]imidazo[1,2-a]pyridine-3-carboxamide]", "IC50": "≤ 0.05"},
      {"smiles": "Cc1ccc(-c2noc(C[C@H](O)C(F)F)n2)cc1NC(=O)c1cnc2cc(OCCO)ccn12", "note": "[Compound I-570, (S)—N-(5-(5-(3,3-difluoro-2-hydroxypropyl)-1,2,4-oxadiazol-3-yl)-2-methylphenyl)-7-(2-hydroxyethoxy)imidazo[1,2-a]pyridine-3-carboxamide]", "IC50": "≤ 0.05"},
      {"smiles": "Cc1ccc(-c2ncon2)cc1NC(=O)c1cnc2cc(-c3cscn3)ccn12", "note": "[Compound I-694]", "IC50": "≤ 0.05"},
      {"smiles": "Cc1ccc(-c2noc([C@H]3C[C@@H]3F)n2)cc1NC(=O)c1cnc2cc(COCC3(O)COC3)ccn12", "note": "[Compound I-490, N-(5-(5-((1R,2S)-2-fluorocyclopropyl)-1,2,4-oxadiazol-3-yl)-2-methylphenyl)-7-(((3-hydroxyoxetan-3-yl)methoxy)methyl)imidazo[1,2-a]pyridine-3-carboxamide]", "IC50": "≤ 0.05"},
      {"smiles": "Cc1ccc(-c2noc(N3CC(F)(F)C3)n2)cc1NC(=O)c1cnn2cc(F)ccc12", "note": "[Compound I-626]", "IC50": "0.05 to 0.5"},
      {"smiles": "Cc1ccc(-c2noc(-c3ccccc3)n2)cc1NC(=O)c1cnc2cc(COCCO)ccn12", "note": "[Compound I-719]", "IC50": "≤ 0.05"},
      {"smiles": "Cc1ccc(-c2noc(CC3COC3)n2)cc1NC(=O)c1cnc2cc(Cl)ccn12", "note": "[Compound I-753, 7-Chloro-N-[2-methyl-5-[5-(oxetan-3-ylmethyl)-1,2,4-oxadiazol-3-yl]phenyl]imidazo[1,2-a]pyridine-3-carboxamide]", "IC50": "≤ 0.05"},
      {"smiles": "Cc1ccc(-c2noc([C@H]3C[C@@H]3F)n2)cc1NC(=O)c1cnn2cc(CCOCCO)ccc12", "note": "[Compound I-503, N-(5-(5-((1R,2S)-2-fluorocyclopropyl)-1,2,4-oxadiazol-3-yl)-2-methylphenyl)-6-(2-(2-hydroxyethoxy)ethyl)pyrazolo[1,5-a]pyridine-3-carboxamide]", "IC50": "≤ 0.05"},
      {"smiles": "COC[C@@H](O)c1nc(-c2ccc(C)c(NC(=O)c3cnc4cc(C)ccn34)c2)no1", "note": "[Compound I-607]", "IC50": "0.5 to 5"},
      {"smiles": "COc1ccn2c(C(=O)Nc3cc(-c4noc(CCC(C)(C)O)n4)ccc3C)cnc2c1", "note": "[Compound I-561, N-(5-(5-(3-hydroxy-3-methylbutyl)-1,2,4-oxadiazol-3-yl)-2-methylphenyl)-7-methoxyimidazo[1,2-a]pyridine-3-carboxamide]", "IC50": "≤ 0.05"},
      {"smiles": "COc1ccn2c(C(=O)Nc3cc(-c4noc(C(C)O)n4)ccc3C)cnc2c1", "note": "(stereo not shown) [Compound I-742]", "IC50": "0.05 to 0.5"},
      {"smiles": "Cc1ccc(-c2noc(CC(C)O)n2)cc1NC(=O)c1cnc2cc(F)ccn12", "note": "(stereo not shown) [Compound I-606]", "IC50": "0.05 to 0.5"},
      {"smiles": "Cc1ccc(-c2noc([C@H]3C[C@@H]3F)n2)cc1NC(=O)c1cnc2cc(C(=O)O)ccn12", "note": "[Compound I-491]", "IC50": "0.05 to 0.5"},
      {"smiles": "Cc1ccc(-c2noc([C@H]3C[C@@H]3F)n2)cc1NC(=O)c1cnc2cc(-c3cscn3)ccn12", "note": "[Compound I-547, N-(5-(5-((1R,2S)-2-fluorocyclopropyl)-1,2,4-oxadiazol-3-yl)-2-methylphenyl)-7-(thiazol-4-yl)imidazo[1,2-a]pyridine-3-carboxamide]", "IC50": "≤ 0.05"},
      {"smiles": "Cc1ccc(-c2noc(-c3cccnc3)n2)cc1NC(=O)c1cnc2cc(COCCO)ccn12", "note": "[Compound I-708]", "IC50": "0.05 to 0.5"},
      {"smiles": "Cc1ccn2c(C(=O)Nc3cc(-c4noc(-c5ccccc5)n4)ccc3C)cnc2c1", "note": "[Compound I-736]", "IC50": "≤ 0.05"},
      {"smiles": "COc1ccn2c(C(=O)Nc3cc(-c4noc(-c5ccccn5)n4)ccc3C)cnc2c1", "note": "[Compound I-536, 7-methoxy-N-(2-methyl-5-(5-(pyridin-2-yl)-1,2,4-oxadiazol-3-yl)phenyl)imidazo[1,2-a]pyridine-3-carboxamide]", "IC50": "≤ 0.05"},
      {"smiles": "CCc1nc(-c2ccc(C)c(NC(=O)c3cnc4cc(-c5csc(CO)n5)ccn34)c2)no1", "note": "[Compound I-672]", "IC50": "≤ 0.05"},
      {"smiles": "COCc1ccn2c(C(=O)Nc3cc(-c4noc([C@@H]5CC6(CC6)CN5)n4)ccc3C)cnc2c1", "note": "[Compound I-638, N-[5-[5-[(6S)-5-azaspiro[2.4]heptan-6-yl]-1,2,4-oxadiazol-3-yl]-2-methyl-phenyl]-7-(methoxymethyl)imidazo[1,2-a]pyridine-3-carboxamide]", "IC50": "≤ 0.05"},
      {"smiles": "Cc1ccc(-c2noc([C@H]3C[C@@H]3F)n2)cc1NC(=O)c1cnn2ccc(C(F)F)cc12", "note": "[Compound I-494, 5-(difluoromethyl)-N-(5-(5-((1R,2S)-2-fluorocyclopropyl)-1,2,4-oxadiazol-3-yl)-2-methylphenyl)pyrazolo[1,5-a]pyridine-3-carboxamide]", "IC50": "≤ 0.05"},
      {"smiles": "Cc1ccc(-c2noc(C3CC(F)(F)C3)n2)cc1NC(=O)c1cnc2cc(COCC(C)(C)O)ccn12", "note": "[Compound I-521, N-(5-(5-(3,3-difluorocyclobutyl)-1,2,4-oxadiazol-3-yl)-2-methylphenyl)-7-((2-hydroxy-2-methylpropoxy)methyl)imidazo[1,2-a]pyridine-3-carboxamide]", "IC50": "≤ 0.05"},
      {"smiles": "Cc1ccc(-c2noc([C@H](C)O)n2)cc1NC(=O)c1cnc2cc(-c3cscn3)ccn12", "note": "[Compound I-721]", "IC50": "≤ 0.05"},
      {"smiles": "CCNc1ccn2c(C(=O)Nc3cc(-c4ncon4)ccc3C)cnc2c1", "note": "[Compound I-706]", "IC50": "≤ 0.05"},
      {"smiles": "Cc1ccn2c(C(=O)Nc3cc(-c4noc(C5CCC(F)(F)CC5)n4)ccc3C)cnc2c1", "note": "[Compound I-540, 4 N-(5-(5-(4,4-difluorocyclohexyl)-1,2,4-oxadiazol-3-yl)-2-methylphenyl)-7-methylimidazo[1,2-a]pyridine-3-carboxamide]", "IC50": "≤ 0.05"},
      {"smiles": "Cc1ccc(-c2noc([C@H]3C[C@@H](N)C3)n2)cc1NC(=O)c1cnc2cc(Cl)ccn12", "note": "[Compound I-623]", "IC50": "0.5 to 5"},
      {"smiles": "Cc1ccc(-c2noc(C3CC(F)(F)C3)n2)cc1NC(=O)c1cnn2ccccc12", "note": "[Compound I-518, methyl N-(5-(5-(3,3-difluorocyclobutyl)-1,2,4-oxadiazol-3-yl)-2-methylphenyl)pyrazolo[1,5-a]pyridine-3-carboxamide]", "IC50": "≤ 0.05"},
      {"smiles": "Cc1ccc(-c2noc([C@H]3C[C@@H]3F)n2)cc1NC(=O)c1cnn2cc(COCC(C)(C)O)ccc12", "note": "[Compound I-466, N-[5-[5-[(1R,2S)-2-fluorocyclopropyl]-1,2,4-oxadiazol-3-yl]-2-methyl-phenyl]-6-[(2-hydroxy-2-methylpropoxy)methyl]pyrazolo[1,5-a]pyridine-3-carboxamide]", "IC50": "≤ 0.05"},
      {"smiles": "Cc1ccc(-c2noc([C@H]3C[C@@H]3F)n2)cc1NC(=O)c1cnc2cc(CCCC(C)(C)O)ccn12", "note": "[Compound I-452, N-[5-[5-[(1R,2S)-2-fluorocyclopropyl]-1,2,4-oxadiazol-3-yl]-2-methyl-phenyl]-7-(4-hydroxy-4-methyl-pentyl)imidazo[1,2-a]pyridine-3-carboxamide]", "IC50": "≤ 0.05"},
      {"smiles": "Cc1ccn2c(C(=O)Nc3cc(-c4noc(CC5CCCO5)n4)ccc3C)cnc2c1", "note": "(stereo not shown) [Compound I-553, 7-methyl-N-(2-methyl-5-(5-((tetrahydrofuran-2-yl)methyl)-1,2,4-oxadiazol-3-yl)phenyl)imidazo[1,2-a]pyridine-3-carboxamide]", "IC50": "≤ 0.05"}
    ]}
  ]
}
